Results on 36 molecules are retold here after publication PMC8406298, “Discovery of Fungus-Specific Targets and Inhibitors Using Chemical Phenotyping of Pathogenic Spore Germination” (mBio, 2021).

One data set relates to Cryptococcus spores. As to the kind of experiment: Quantitative germination assay (QGA), automated microscopy of spore germination. Type of data set: cell-based, Cryptococcus neoformans serotype D (deneoformans). Particulars: for germination inhibition phenotype (chemical phenotype) in QGA: at phenotypic concentration. Here is the method: In this automated microscopy-based assay, germination progression of spores is monitored as a function of changes in cell morphology over time (spores are small and oval; yeast are large and circular). Individual spores in a population (∼1 × 10^4 per sample) are measured to determine size (area) and shape (aspect ratio) from the onset of germination, and the data are collected for each cell over the time of germination (Fig. 1A).
Germination assays were modified from those described by Barkal et al. to introduce automation, increase throughput, and refine assay consistency ([12]). Briefly, 384-well plates (Thermo Scientific 142762) were loaded with 10^5 spores per well, and at 0 h, synthetic medium plus 2% dextrose (SD medium) containing the compounds of interest was added to the sample (final volume of 40 μl). All compounds were tested initially at 80 μM; however, concentrations were changed on a case-by-case basis for subsequent experiments. All assays and controls were performed with a final concentration of 0.8% DMSO (the compound solvent) unless specified otherwise. Spores were germinated at 30°C in a humidified chamber, and the same ∼5 × 10^3 cells were monitored every 2 h for 16 h. Imaging was performed on a Ti2 Nikon microscope, and each condition was visualized in a minimum of two individual wells with three fields of view acquired from each well. All images were analyzed as described previously based on cell shape and size using ImageJ. The population ratios of spores, intermediates, and yeast were determined. Error bars in plots are based on the variation among all fields of view acquired. Level of germination was determined by quantifying the decrease in the proportion of spores in a population, and rates were quantified by determining the change in this proportion over time. For all two-dimensional histograms, the x axis represents area from 0 μm^2 to 25 μm^2, and the y axis represents the aspect ratio from 0.4 to 1.
Cycloheximide (0.078 μM to 80 μM) (Dot Scientific, Inc. DSC81040-1), G418 (1.6 mM) (Fisher Scientific AAJ6267106), and puromycin (20 mM) (Dot Scientific, Inc. DSP33020-0.025) were tested with no DMSO (all were water soluble), whereas anisomycin (62.5 μM) (Sigma-Aldrich A9789-5MG) was tested in 2.5% DMSO.
Furcarbanil (80 μM) (Sigma-Aldrich T313122), rotenone (10 μM) (Fisher Scientific 501687383), and antimycin A (2.5 μM) (Santa Cruz Biotechnology, Inc. sc-202467A) were all tested in 0.8% DMSO, and TTFA (200 μM) (Sigma-Aldrich 88300-5G) was tested in 3% DMSO.

The subject of data set [1] is Cryptococcus yeast (CHY3833 and CHY3836). As to the kind of experiment: Yeast replication secondary screen (OD600). The data set is classed as cell-based, Cryptococcus neoformans serotype D (deneoformans). The following applies: 10 μM, 12 h at 30°C. How it is done: (ii) Yeast replication. CHY3833 and CHY3836 were each grown in YPD liquid overnight at 30°C to saturation and then resuspended in 0.5× YPD at an OD600 of 0.005. Strains were aliquoted into 384-well plates with inhibitors and grown for 12 h at 30°C at […] before OD600 readings were taken. Compounds that caused a >10% decrease in growth were considered yeast growth inhibitors.

For data set [2], the system named is normal human dermal fibroblasts (NHDF) cells. The data set can be described thus: Fibroblast cytotoxicity (CellTiter-Glo). The data set is classed as cell-based. The following applies: 10 µM. A digest of the protocol:
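Normal human dermal fibroblasts, 1 × 10^3 per well, exposed to compounds at 10 μM for 72 h at 37°C. Viability read as ATP-dependent CellTiter-Glo luminescence. Dose-response runs titrated compounds from 80 μM to 0.5 μM in duplicate.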
(In general: Cellular ATP, detected with luciferase, serves as a proxy for viable cell number.)

Regarding `C/C=C/c1ccc(OCCn2cnc3ccccc32)c(OC)c1` [PubChem CID 5769972], in the data set with Cryptococcus spores, the “phenotypic concentration (concentration showing the germination phenotype in QGA)” value (“phenotypic concentration” for short) was determined as 10 µM and the “germination inhibition phenotype (chemical phenotype) in QGA” value (“germination inhibition phenotype” for short) was “slow down”.
Taken in the same sequence, the figures for `CC(C)(C)c1ccc(-c2csc(N)n2)cc1` [PubChem CID 673711] were 5 µM and “bimodal”.
As for `O=C(c1cc(-c2ccco2)on1)N1CCC(c2cccs2)CC1` [PubChem CID 71786870], in the data set with Cryptococcus spores, the “phenotypic concentration” value was 40 µM and the “germination inhibition phenotype” value is recorded as “asynchrony”.
On to `CCc1ccc2nc(N)sc2c1` [PubChem CID 773093], for which, in the data set on Cryptococcus spores, the “phenotypic concentration” value was 5 µM and the “germination inhibition phenotype” value is recorded as “slow end”.
Regarding `O=C(CSCc1ccccc1)N1CCC(c2cccs2)CC1` [PubChem CID 71786876], in the data set on Cryptococcus spores, the “phenotypic concentration” value came to 80 µM and the “germination inhibition phenotype” value was “asynchrony”.
Turning to `Clc1ccc(OCCSCc2nc3ccccc3[nH]2)cc1` [PubChem CID 1589789], in the data set with Cryptococcus spores, the “phenotypic concentration” value turned out to be 20 µM and the “germination inhibition phenotype” value is “slow down”.
Taken in the same sequence, the figures for `ClC1(Cl)CC1Cn1cnc2ccccc21` (stereo not drawn) [PubChem CID 2936975] were 40 µM and “slow down”.
Taken in the same sequence, the figures for `Nc1nc(-c2ccc(Oc3ccccc3)cc2)cs1` [PubChem CID 780598] were 20 µM and “bimodal”.
Consider `COc1ccc(/C=C/c2nc3ccccc3[nH]2)cc1` [PubChem CID 5769808], for which, in the data set with Cryptococcus spores, the “phenotypic concentration” value turned out to be 20 µM and the “germination inhibition phenotype” value is “slow down”.
For the molecule `Nc1nc(COc2ccc3ccccc3c2)cs1` [PubChem CID 973573], in the data set on Cryptococcus spores, the “phenotypic concentration” value was 10 µM and the “germination inhibition phenotype” value is on record as “asynchrony”.
In the case of `Cc1ccccc1OCCn1cnc2ccccc21` [PubChem CID 749608], in the data set on Cryptococcus spores, the “phenotypic concentration” value came to 10 µM and the “germination inhibition phenotype” value is given as “slow down”.
Taken in the same sequence, the figures for `CCCCSc1nc2ccc(C)cc2[nH]1` [PubChem CID 2129690] were 80 µM and “slow down”.
`COC(=O)c1ccc(Cn2c(S(C)(=O)=O)nc3ccccc32)cc1` [compound 18576765]: in data set [1], the “Yeast Inhibition: % Inhibition” value worked out at 3.8%. The “Cytotoxicity: Relative Cell Viability (% of Negative Control)” value in data set [2] is on record as 88.5 % of Negative Control.
For the molecule `Cc1ccc(COC(=O)c2ccc(C3Nc4ccccc4S(=O)(=O)N3)cc2)cc1` (stereo not drawn) [compound 44117349], the “Yeast Inhibition: % Inhibition” value in data set [1] amounted to 15.4%. Also, the “Cytotoxicity: Relative Cell Viability (% of Negative Control)” value in data set [2] is reported as 106.4 % of Negative Control.
For `O=C(Nc1cccc(C(F)(F)F)c1)C(Cl)C(=O)c1ccccc1` (stereo not drawn) [compound 4162926], in data set [1], the “Yeast Inhibition: % Inhibition” value was found to be 101.5%. Further, the “Cytotoxicity: Relative Cell Viability (% of Negative Control)” value in data set [2] is 20.8 % of Negative Control.
For the molecule `CCCOc1ccc(CSc2nc3ccccc3[nH]2)cc1` [compound 1653621], the “Yeast Inhibition: % Inhibition” value in data set [1] was 77.4%. For the same molecule, in data set [2], the “Cytotoxicity: Relative Cell Viability (% of Negative Control)” value was 75.1 % of Negative Control.
Taken in the same sequence, the figures for `O=c1[nH]sc2ccccc12` [compound 17520] were 101.5% and 3.3 % of Negative Control.
In the case of `O=Cc1sc(=O)n(-c2ccccc2)c1Cl` [compound 2793380], in data set [1], the “Yeast Inhibition: % Inhibition” value was determined as 78.0%. In data set [2], the “Cytotoxicity: Relative Cell Viability (% of Negative Control)” value is 5.7 % of Negative Control.
On to `O=C1CC(c2cccs2)CC(=O)N1Cc1csc(-c2ccccc2)n1` [compound 71801965], for which the “Yeast Inhibition: % Inhibition” value in data set [1] turned out to be 3.9%. For the same molecule, the “Cytotoxicity: Relative Cell Viability (% of Negative Control)” value in data set [2] is on record as 95.9 % of Negative Control.
Taken in the same sequence, the figures for `OC(COc1ccc(C23CC4CC(CC(C4)C2)C3)cc1)C[N+]1(Cc2ccccc2)CCOCC1` (stereo not drawn) [compound 16456368] were 101.6% and 2.8 % of Negative Control.
As to `Cc1ccccc1OCCSCc1nc2ccccc2[nH]1` [compound 1589778], the “Yeast Inhibition: % Inhibition” value in data set [1] was 72.5%. In data set [2], the “Cytotoxicity: Relative Cell Viability (% of Negative Control)” value is listed as 86.0 % of Negative Control.
Turning to `COC(=O)c1c(N)sc(C)c1-c1ccc(F)cc1` [compound 874714], the “Yeast Inhibition: % Inhibition” value in data set [1] worked out at 87.6%. In addition, in data set [2], the “Cytotoxicity: Relative Cell Viability (% of Negative Control)” value was 75.9 % of Negative Control.
Taken in the same sequence, the figures for `O=S(=O)(Nc1ccc(Br)cc1F)c1ccc(Cl)c(C(F)(F)F)c1` [compound 1307471] were 59.9% and 98.7 % of Negative Control.
Taken in the same sequence, the figures for `CC(C)C(=O)Nc1nnc(SCc2cccc(F)c2)s1` [compound 4086498] were 20.2% and 106.8 % of Negative Control.
Taken in the same sequence, the figures for `O=S(=O)(NCC#CCOc1cccc(C(F)(F)F)c1)c1cccs1` [compound 71803055] were 7.0% and 63.8 % of Negative Control.
As for `CC(=O)c1ccc(OCCOc2ccc(C#N)cc2)cc1` [compound 1713451], the “Yeast Inhibition: % Inhibition” value in data set [1] is 41.1%. Also, the “Cytotoxicity: Relative Cell Viability (% of Negative Control)” value in data set [2] was 106.4 % of Negative Control.
Taken in the same sequence, the figures for `O=C1NC(=S)S/C1=C\c1ccc(OC(F)(F)F)cc1` [compound 16433415] were 82.9% and 79.7 % of Negative Control.
Taken in the same sequence, the figures for `Cl.Cl.OC(COc1cccc2ccccc12)CN1CCN(c2ccc(F)cc2)CC1` (stereo not drawn) [compound 45283772] were 44.0% and 96.8 % of Negative Control.
For the molecule `Cc1ccccc1CSc1n[nH]c(=O)c2cc(-c3ccco3)nn12` [compound 27373907], in data set [1], the “Yeast Inhibition: % Inhibition” value is 49.7%. The “Cytotoxicity: Relative Cell Viability (% of Negative Control)” value in data set [2] is listed as 97.6 % of Negative Control.
For `C(=C\c1cccs1)/c1nnc(-c2cccs2)o1` [compound 6263817], in data set [1], the “Yeast Inhibition: % Inhibition” value was found to be 49.0%. The “Cytotoxicity: Relative Cell Viability (% of Negative Control)” value in data set [2] is reported as 84.3 % of Negative Control.
For `Cc1nc(NC(=O)CCc2ccccc2)sc1C` [compound 733834], the “Yeast Inhibition: % Inhibition” value in data set [1] stood at 89.7%. For the same molecule, in data set [2], the “Cytotoxicity: Relative Cell Viability (% of Negative Control)” value is 96.8 % of Negative Control.
Taken in the same sequence, the figures for `Cc1n[nH]c(C)c1Br` [compound 76937] were 22.1% and 59.9 % of Negative Control.
Taken in the same sequence, the figures for `O=C(Nc1ccc2[nH]c3c(c2c1)CCCC3)c1ccco1` [compound 852322] were 65.7% and 77.3 % of Negative Control.
Taken in the same sequence, the figures for `CCCCSc1nc2ccc(C)cc2[nH]1` [compound 2129690] were 80.1% and 104.3 % of Negative Control.
With `O=C(COc1ccccc1F)N1CCC(Oc2ncccc2Br)CC1` [compound 71799471], the “Yeast Inhibition: % Inhibition” value in data set [1] was 2.6%. Also, the “Cytotoxicity: Relative Cell Viability (% of Negative Control)” value in data set [2] is recorded as 101.4 % of Negative Control.
Turning to `O=C(Nc1cnc(Oc2ccccc2)nc1)c1cccc(Cl)c1` [compound 71799766], the “Yeast Inhibition: % Inhibition” value in data set [1] is given as 7.9%. Also, the “Cytotoxicity: Relative Cell Viability (% of Negative Control)” value in data set [2] was 99.9 % of Negative Control.
